Results on eleven compounds are retold here after ChEMBL document CHEMBL1201862, “PubChem BioAssay data set” (2004).

The structures appear in SMILES notation. Activity calls are given as the source filed them. A value given as a limit tells only on which side of the number the result lay.

In one test the target is Major prion protein (Homo sapiens, UniProt P04156). The class given is functional, cell-based.
Test [1] is described as follows: cells.
The nature of test [2]: cells. The source holds these as a separate data set.
A further test addresses Caspase-6 (Homo sapiens, UniProt P55212). Briefly: human caspase-6 inhibitors, dose response, biochemical, VEID-R110 fluorescence, cherry-pick (AID 720632).
The nature of test [3]: inhibitors of Vif binding to APOBEC3G peptide, primary screen, biochemical, TR-FRET, GST-Vif 1-94, biotin-A3G peptide, dose response retest (AID 1117319).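 Also: TR-FRET signal of purified GST-Vif binding a biotinylated A3G peptide; inhibitors lower the FRET signal by blocking Vif and A3G binding.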 The format is functional.
A further test deals with Nonstructural protein 1 (Influenza A virus, UniProt Q194T2). The class given is functional, Influenza A virus (A/California/07/2009(H1N1)).
Test [4] in a line: HeLa cell cytotoxicity, dose response, cytotoxicity control, CellTiter-Glo luminescence, dry powder, set 2 (AID 720593). The class given is functional, cell-based.
Test [5] can be described thus: Vero E6 cell cytotoxicity, dose response, cytotoxicity control for non-replicating M. tuberculosis project, secondary assay (AID 492998). The class given is functional, VeroE6. To be noted: Vero C1008.
The next test deals with Streptococcus. The experiment in a line: Group A Streptococcus viability loss, dose response, counter-screen for streptokinase expression inhibitor project, luminescence, BacTiterGlo (AID 1915).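 Also: potency for reduction of bacterial viability or growth.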 The format is functional, organism-based.
Test [6] can be described thus: cells. The format is functional.
Test [7] can be described thus: HEK293T cell cytotoxicity, dose response, cytotoxicity control, CellTiter-Glo luminescence, dry powder, set 2 (AID 720595). The class given is functional, cell-based. To be noted: HEK293.
Test [8] can be described thus: HepG2 cell cytotoxicity, dose response, cytotoxicity control for non-replicating M. tuberculosis project (AID 489018). The following applies: Mycobacterium tuberculosis. The class given is functional.
A short description of test [9]: THP-1 cell cytotoxicity, dose response, cytotoxicity control for non-replicating M. tuberculosis project (AID 489025). The format is functional.
In test [10] the test system is Streptococcus sp. 'group A'. Briefly: growth inhibition of control SK(-) GAS strain, dose response, counter-screen for streptokinase expression inhibitor project, luminescence, kanamycin, BacTiterGlo, confirmation (AID 1900). The format is functional, organism-based.
Another test concerns the target T1, Streptokinase A (Streptococcus pyogenes serotype M1, UniProt P10520).
T1 sequence (P10520 whole entry): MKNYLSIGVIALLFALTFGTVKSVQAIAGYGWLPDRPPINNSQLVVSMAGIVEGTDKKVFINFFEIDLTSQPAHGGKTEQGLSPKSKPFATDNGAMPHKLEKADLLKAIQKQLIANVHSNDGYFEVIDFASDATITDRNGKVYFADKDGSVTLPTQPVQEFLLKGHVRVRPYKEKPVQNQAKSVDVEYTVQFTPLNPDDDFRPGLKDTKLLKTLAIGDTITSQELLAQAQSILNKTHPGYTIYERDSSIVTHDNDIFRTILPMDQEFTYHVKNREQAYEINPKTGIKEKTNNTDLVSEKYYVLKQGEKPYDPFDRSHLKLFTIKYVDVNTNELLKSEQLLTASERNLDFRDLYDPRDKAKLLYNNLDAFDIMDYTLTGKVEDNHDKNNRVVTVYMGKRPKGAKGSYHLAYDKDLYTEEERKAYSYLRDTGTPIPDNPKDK
Briefly: S. pyogenes streptokinase expression inhibitors, potency, dose response, plasminogen activation absorbance, OD405 (AID 1914).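 Also: secreted streptokinase activity via plasminogen activation per viability signal from cell pellet.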 The format is functional, Streptococcus pyogenes M1 GAS.

Test [11] deals with NAD-dependent protein deacylase sirtuin-5, mitochondrial (Homo sapiens, UniProt Q9NXA8). Briefly: SIRT5 deacylase inhibitors, dose response, biochemical, fluorescence imaging, cherry-pick, set 6 (AID 720597).
A further test has as its system HEK293. Briefly: HEK293T cell cytotoxicity, dose response, cytotoxicity control, ATP luminescence, cherry-pick samples (AID 687005).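 Also: cells exposed to compound for 48 hours.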 The class given is functional, cell-based. To be noted: Homo sapiens.
Test [12] is described as follows: HEK293 Cytotoxicity Assay Measured in Cell-Based System Using Plate Reader - 7071-01_Inhibitor_Dose_CherryPick_Activity_Set2. The class given is functional.
A short description of test [13]: cytotoxicity in OVCAR8 ovarian cancer cells, dose response, PAX8 project, cell-based, plate reader, dry powder samples (AID 743197). The class given is functional. To be noted: OVCAR-8.
Test [14] can be described thus: A2780 ovarian cancer cell cytotoxicity, dose response, cytotoxicity control, plate reader, dry powder samples (AID 743046). The class given is functional, cell-based.
The target of another test is Paired box protein Pax-8 (Homo sapiens, UniProt Q06710). The experiment in a line: inhibitors of PAX8-driven TPO luciferase reporter, dose response, RMG-I cells, cherry-pick (AID 687027).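 Also: luciferase reporter driven by Pax8 target thyroperoxidase promoter measured by SteadyGlo luminescence.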 The format is functional, cell-based.
A short description of test [15]: IGROV1 ovarian cancer cell cytotoxicity, dose response, PAX8 inhibitor project, plate reader, dry powder samples (AID 743043). The format is functional, cell-based. To be noted: IGROV-1.
Test [16] is described as follows: NIH:OVCAR-3 ovarian cancer cell cytotoxicity, dose response, PAX8 inhibitor project, plate reader, dry powder samples (AID 743044). The format is functional, cell-based.
A short description of test [17]: HEK293 cell cytotoxicity, dose response, cytotoxicity control, cherry-picks, set 5 (AID 1053117). The format is functional, cell-based.
Test [18] in a line: MC4R antagonists, dose response, counter-screen for LGR2 antagonist project, cell-based, plate reader, cherry pick (AID 743444).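 Also: transfected HEK 293 cells stimulated with alpha-MSH peptide; potency of inhibitors of the alpha-MSH evoked signal.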 The class given is functional.
The nature of test [19]: A549 cell cytotoxicity, dose response, cytotoxicity control, plate reader, cherry-pick, antagonist series (AID 743412). The format is functional, cell-based.
The nature of test [20]: LGR2 antagonists, dose response, cell-based, HEK293, CRE-luciferase reporter, cherry pick (AID 743342). The class given is functional.
The nature of test [21]: ADAM10 inhibitors, peptide cleavage, dose response, biochemical, QFRET (AID 743254).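 Also: ADAM10 enzyme with the DM2 quenched FRET peptide as substrate; EDANS fluorescence gain as the protease cuts the substrate; inhibitor potency against ADAM10 proteolytic activity.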
The target in test [22] is Disintegrin and metalloproteinase domain-containing protein 17 (Homo sapiens, UniProt P78536). The experiment in a line: ADAM17 protease inhibitors, dose response, counter-screen for ADAM10 exosite inhibitor project, biochemical, quenched FRET substrate (AID 743253).

Consider `CCc1ccc(-c2nc3ccc(Br)cc3c(C(=O)O)c2C)s1`, for which the values for the IC50 on Major prion protein and in the test “cells [1]” were 1.24 µM (active) and > 138 µM (inactive), respectively.

Take `COCCN1C=C(C(=O)OC)C(c2ccc(Cl)cc2)C(C(=O)OC)=C1`: the AC50 in the test “cells [2]” is 10.9 µM (active).

Consider `O=C(O)c1cc(S(=O)(=O)Nc2ccc3c[nH]nc3c2)ccc1O`, for which, on Caspase-6, the AC50 is 11.3 µM (active).

In the case of `CCn1c(=O)cc(N2CCC3(CC2)OCCO3)[nH]c1=O`, the IC50 in [3] was > 100 µM (active).

Consider `O=C(Nc1nc(-c2ccccn2)cs1)c1ccco1`, for which the values for the concentration for half-maximal inhibition (IC50) at Nonstructural protein 1 and in “cells [6]” were 7.12 µM (active) and 1.68 µM (active), respectively. The AC50 in test [4] was > 52 µM (inactive); in test [7] it was 7.58 µM (active). The figures for the CC50 in [5], in [8] and in test [9] were 11.3 µM (active), > 20 µM (active) and 6.1 µM (active), respectively. Moreover, the EC50 was > 150 µM (not active) with Streptococcus, 10.8 µM (active) in [10] and > 150 µM (not active) at Streptokinase A.

Turning to `Cc1cccc(S(=O)(=O)N(C)C[C@H]2OCc3cnnn3CCCC(=O)N([C@H](C)CO)C[C@@H]2C)c1`, in test [11], the AC50 is 23.9 µM (active).

Consider `O=C(N[C@@H]1CC[C@@H](CCn2cc(-c3ccccc3)nn2)O[C@H]1CO)c1cnccn1`, for which the AC50 (with HEK293; in test [12]) was 21.8 µM (active) throughout.

With `COc1ccc(S(=O)(=O)N(C)C[C@H]2Oc3cc(C#CC4CCCC4)ccc3S(=O)(=O)N([C@@H](C)CO)C[C@@H]2C)cc1`, the concentration at half-maximal activity (AC50) in test [13] is 31.3 µM (active); in test [14] it was 8.96 µM (active); on Paired box protein Pax-8, 6.49 µM (active); in [15], 57.4 µM (active); in test [16], 21.4 µM (active).

Consider `COc1cccc(-c2ccc3c(c2)[C@H]2[C@H](CCN2S(=O)(=O)c2cccc(OC)c2)[C@H](CO)N3)c1`, for which, in [17], the AC50 is 26.9 µM (active).

With `C[C@H](CO)N1C[C@H](C)[C@H](CN(C)C(=O)Nc2cccc3ccccc23)OCCCC[C@H](C)Oc2ccc(NC(=O)c3ccccc3)cc2C1=O`, the AC50 in test [18] was 52.5 µM (active); in [19] it was 48 µM (active); in test [20], 4.88 µM (active).

As for `Nc1[nH]c(C(=O)c2ccccc2)c(-c2cccc(C(F)(F)F)c2)c1C(=O)NCCc1c[nH]c2ccccc12`, the half-maximal inhibitory concentration (IC50) in [21] is > 7.73 µM (active); in test [22], > 69.6 µM (inactive).
